Laboratory results taken from patent publication US20130231360A1, “Beta-Carbolines as Inhibitors of Haspin and DYRK Kinases” (THE BRIGHAM AND WOMEN S HOSPITAL, INC., priority 2010, published 2013).
Like-named read-outs stand apart in the source and are kept apart here.

Target: T1, Haspin kinase (Homo sapiens, UniProt Q8TF76)
T1 construct: This full-length Haspin gene was cloned into the pMALc2E vector; made in house; host or cells: E. coli Rosetta 2(DE3)pLysS
T1 sequence (Q8TF76 1-798): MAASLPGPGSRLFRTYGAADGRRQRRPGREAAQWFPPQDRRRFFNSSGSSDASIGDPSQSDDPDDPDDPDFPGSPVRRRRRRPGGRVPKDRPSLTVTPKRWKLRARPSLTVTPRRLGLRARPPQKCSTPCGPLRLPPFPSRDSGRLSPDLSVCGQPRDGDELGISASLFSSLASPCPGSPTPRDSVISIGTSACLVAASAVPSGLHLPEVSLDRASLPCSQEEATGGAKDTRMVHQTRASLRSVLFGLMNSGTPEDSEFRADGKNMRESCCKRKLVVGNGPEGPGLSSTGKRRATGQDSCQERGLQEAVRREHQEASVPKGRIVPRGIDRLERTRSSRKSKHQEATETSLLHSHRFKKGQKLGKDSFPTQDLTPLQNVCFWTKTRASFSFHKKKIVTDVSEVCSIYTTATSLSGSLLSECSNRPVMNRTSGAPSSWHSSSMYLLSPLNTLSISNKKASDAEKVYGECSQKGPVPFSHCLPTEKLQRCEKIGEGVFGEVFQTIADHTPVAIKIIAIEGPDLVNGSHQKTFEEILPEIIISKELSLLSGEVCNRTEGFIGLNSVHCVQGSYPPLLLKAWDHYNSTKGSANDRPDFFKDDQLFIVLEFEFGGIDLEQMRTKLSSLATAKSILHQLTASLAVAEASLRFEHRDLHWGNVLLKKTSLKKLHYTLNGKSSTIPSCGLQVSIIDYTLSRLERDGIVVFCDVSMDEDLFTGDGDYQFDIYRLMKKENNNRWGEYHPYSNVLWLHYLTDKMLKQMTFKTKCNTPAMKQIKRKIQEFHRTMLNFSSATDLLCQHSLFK
Assay: TR-FRET Haspin assay
Type: biochemical
Details: for Haspin kinase inhibitory activity (in words): high throughput screen by TR-FRET, hits revalidated in radiometric assay and confirmed in cellular assay
Excerpt: A synthetic codon-optimized human Haspin cDNA was made in vector pUC57 at GenScript Corporation (Piscataway, N.J.) to facilitate bacterial expression. This full-length Haspin gene was cloned into the pMALc2E vector (New England Biolabs, Ipswich, Mass.) using EcoR I and Sal I sites. Haspin was expressed and purified as an N-terminal MBP fusion protein from E. coli Rosetta™2(DE3)pLysS cells (Novagen, Madison, Wis.). A freshly transformed colony was used to initiate a small volume liquid culture in LB medium with 2 g/l glucose, 34 μg/ml chloramphenicol and 100 μg/ml ampicillin. This culture was used to inoculate a large volume of the same medium and grown until an absorbance at 600 nm of 0.5 was reached. Protein expression was induced by adding 0.3 mM isopropyl thiogalactoside and growth with shaking at room temperature for 14 hours. Affinity column chromatography was carried out using amylose resin following the manufacturer's instructions (New England Biolabs). The fusion protein was eluted in 50 mM Tris, pH 7.5, 200 mM NaCl, 10 mM maltose and dialyzed into 50 mM Tris, pH 7.5, 200 mM NaCl, 2 mM DTT and 50% glycerol. The purity and yield of intact fusion protein was determined by SDS-PAGE and Coomassie Blue staining, in comparison with known quantities of bovine serum albumin.
This peptide carried biotin on the side chain of the C-terminal lysine. Recombinant full-length human histone H3 was from New England Biolabs. ATP and Staurosporine were purchased from Sigma-Aldrich (St Louis, Mo.). Rabbit monoclonal anti-Histone H3T3ph antibody (clone JY325) from Millipore (Billerica, Mass.) was directly labeled by PerkinElmer (Waltham, Mass.) with LANCE Eu W1024. For indirect detection, LANCE Eu W1024 labeled anti-rabbit IgG antibody was used (PerkinElmer). Streptavidin conjugated to SureLight-Allophycocyanin (PerkinElmer) was used as the acceptor fluorophore.
A CRS CataLyst Express robotic arm (Thermo Fisher Scientific, Waltham, Mass.) and a Cybi-well 384 channel simultaneous pipettor (CyBio AG, Jena, Germany) were used to carry out the high throughput screening of a small molecule library. Kinase reactions were performed in 50 mM Tris, pH 7.5, 5 mM MgCl2, 1 mM DTT, 0.01% Brij-35 using Proxiplate 384 Plus white assay plates (PerkinElmer). […] The reaction was incubated for 10 minutes at room temperature. The reaction was terminated by addition of […] 50 mM EDTA, 2 nM Europium labeled anti-Histone H3T3ph antibody, 40 nM Streptavidin-APC. After a two hour incubation at room temperature, TR-FRET measurements were performed using a PHERAstar HTS microplate reader (BMG Labtech, Offenberg, Germany), and were expressed as ratios of acceptor fluorescence at 665 nm over donor fluorescence at 620 nm.
Data were analyzed using GraphPad Prism Version 4 (GraphPad Software Inc, La Jolla, Calif.). No inhibitor (“MAX”) and Staurosporine inhibitor (“MIN”) controls were used to calculate Z′ values and signal to background ratios during the high throughput screen. […] Km concentrations were also determined by non-linear regression.
To identify Haspin inhibitors by high throughput screening a homogeneous kinase assay based on time-resolved fluorescence resonance energy transfer (TR-FRET) was designed (Patnaik D., et al. J Biomol. Screen 13: 1025-1034, […].). This TR-FRET assay was utilized to screen a small molecule library of approximately 140,000 compounds. Primary hits were re-tested by TR-FRET assay using the peptide substrate and then revalidated by assaying the compounds in a radiometric assay using full-length Histone H3 as a protein substrate.
IC50 values were determined for inhibition of Haspin kinase utilizing the TR-FRET assay described in Example 3.

[1] = inhibition of Haspin kinase, TR-FRET assay of Example 3, MBP-Haspin, H3(1-21)-biotin peptide 0.1 μM, ATP 200 μM, read-out: IC50

Compound | IC50 (read-out: IC50) | IC50 [1] | other results
Cc1nccc2c1[nH]c1cc(OCCCCNC(=O)OC(C)(C)C)ccc12 [LDN-209920] | > 10000 nM | – | –
c1ccc2c(c1)[nH]c1cnccc12 [LDN-14063] | > 10000 nM | – | –
COc1cccc2c1c1ccnc(C)c1n2CCCCN [LDN-211895] | – | < 3500 nM | –
Cc1nccc2c1[nH]c1cc(OCCCNC(=O)OC(C)(C)C)ccc12 [LDN-209921] | > 10000 nM | – | –
Cc1nccc2c3ccc(O)cc3n(CCCCN)c12 [LDN-209986] | – | < 200 nM | –
COc1ccc2c3ccnc(C)c3n(CCCC(N)c3ccccc3)c2c1 (centres unmarked) [LDN-211902] | < 200 nM | – | –
CCc1nccc2c3ccc(OC)cc3n(CCCCN)c12 [LDN-209984] | – | < 200 nM | –
COc1ccc2c3ccnc(C)c3n(CCCCN)c2c1Cl [LDN-211897] | – | < 1200 nM | –
COc1ccc2c(c1)c1ccnc(C)c1n2CCCCN [LDN-211894] | – | < 3000 nM | –
Cc1nccc2c1[nH]c1cc(OCCCCN)ccc12 [LDN-209932] | – | < 2000 nM | –
COc1ccc2c(c1)[nH]c1ccccc12 [LDN-209934] | > 1000 nM | – | –
COc1ccc2c(c1)[nH]c1ncccc12 [LDN-209919] | > 100000 nM | – | –
COc1ccc2c(c1)[nH]c1c(/C=C/c3ccccc3)nccc12 [LDN-57292] | < 2000 nM | – | Haspin kinase inhibitory activity (in words): identified as a Haspin kinase inhibitors
NCCCCn1c2cc(O)ccc2c2ccnc(C(F)(F)F)c21 [LDN-211998] | – | < 300 nM | –
Cc1nccc2c3ccc(F)cc3n(CCCCN)c12 [LDN-209987] | – | < 600 nM | –
COc1ccc2c3ccnc(C(C)C)c3n(CCCCN)c2c1 [LDN-209985] | – | < 600 nM | –
harmol [LDN-21813, reference compound] | – | < 1500 nM | Haspin kinase inhibitory activity (in words): identified as a Haspin kinase inhibitors
COc1cccc2c3ccnc(C)c3n(CCCCN)c12 [LDN-211893] | – | < 300 nM | –
COc1ccc2c3ccncc3n(CCCCN)c2c1 [LDN-209983] | – | < 350 nM | –
COc1ccc2c(c1)[nH]c1c(-c3ccccc3)nccc12 [LDN-209952] | > 5000 nM | – | –
COc1ccc2c3ccnc(C(F)(F)F)c3n(CCCCN)c2c1 [LDN-211898] | – | < 150 nM | –
COc1ccc2c3ccnc(C)c3n(CCCCN)c2c1 [LDN-209953] | – | < 200 nM | –
Cc1nccc2c3ccc(NS(C)(=O)=O)cc3n(CCCCN)c12 [LDN-211899] | – | < 1000 nM | –
Cc1nccc2c1[nH]c1cc(OCCCN)ccc12 [LDN-209931] | – | < 1000 nM | –
CNCCCCn1c2cc(OC)ccc2c2ccnc(C)c21 [LDN-211900] | – | < 400 nM | –
COc1ccc2c(c1)[nH]c1c(C)nccc12 [LDN-97388, harmine, reference compound] | – | – | IC50: < 1000 nM; Haspin kinase inhibitory activity (in words): identified as a Haspin kinase inhibitors
COc1ccc2c3ccnc(C)c3n(CCCCN)c2c1 [LDN-211901] | – | < 500 nM | –
Cc1nccc2c3cc4c(cc3n(CCCCN)c12)OCO4 [LDN-211896] | – | < 700 nM | –
Cc1nccc2c3ccc(OC(C)(C)C)cc3n(CCCCN)c12 [LDN-211903] | < 5000 nM | – | –
